Assays:
Assay type in all cases: in vivo
stress-induced erosion = test: Stress-induced erosion test (Senay & Levine), anti-ulcer activity
Procedure: (§1) Anti-ulcer activity was determined by the stress-induced erosion test of Senay & Levine, Proc. Soc. Exp. Biol. Med., 124, 1221-1223 (1967) and anti-secretory activity by the test of H. Shay, D. Sun and H. Greenstin, Gastroenterology, 1954, 26, 903-913 as exemplified by Beattie et al J. Med. Chem., 20, 714 (1977). […] However, some compounds show activity in tests for anti-hypertensive activity.

hypersecretion = test: Anti-secretory activity test (Shay et al); design: key to Anti-secretory, % change in Vol.: NS: Not Significant; conditions: for Anti-secretory, % change in Vol. / change in vivo at 30 mg/kg: 30 mg/kg; for change in vivo at 10 mg/kg / change in vivo at 30 mg/kg: read-out: Anti-secretory, % change in Vol.
Procedure: as §1

[1] = system: male spontaneously hypertensive rats; test: Antihypertensive activity, Procedure A: systolic pressure of spontaneously hypertensive rats
Procedure: Systolic pressure of male spontaneously hypertensive rats is measured by an indirect technique using the Decker Caudal Plethysmograph or other appropriate sensor. Groups usually consist of 4 rats. Drugs are usually administered orally. Pressures are usually read prior to drug administration and at 1.5, 4 and 24 hours thereafter. This schedule may be altered depending upon the behaviour of the drug.

Compound	inhibition in vivo at 100 mg/kg (stress-induced erosion) [%]	Anti-secretory, % change in Vol. (hypersecretion)	change in vivo at 30 mg/kg (hypersecretion) [%]	further results
Cc1ccc(CSc2cccc[n+]2C)cc1C [Example 8, 1-Methyl-2-(3,4-dimethylbenzylthio)pyridinium chloride]	62	NS		inhibition in vivo at 30 mg/kg (stress-induced erosion): 70%
C[n+]1ccccc1SCCc1ccccc1 [Example 2, 1-Methyl-2-(2-phenylethylthio) pyridinium bromide]	67		-56	inhibition in vivo at 30 mg/kg (stress-induced erosion): 83%; change in vivo at 10 mg/kg (hypersecretion): -20%; Antihypertensive activity (Procedure A) ([1]; 75 mg/kg orally): showed activity
C[n+]1ccccc1SCc1cccc(F)c1 [Example 22, 2-((-3-Fluorobenzyl)thio)-1-methylpyridinium chloride]	72		-69	inhibition in vivo at 30 mg/kg (stress-induced erosion): 64%
O=[N+]([O-])c1ccc(C[n+]2ccccc2SCc2ccccc2)cc1 [Example 41, 1-(4-Nitrobenzyl)-2-(benzylthio)-pyridinium bromide]	69	NS		
OCc1ccc[n+](-c2ccccc2)c1SCc1ccccc1 [Example 30, 2-Benzylthio-3-hydroxymethyl-1-phenylpyridinium bromide]	71		-42	
C[n+]1ccccc1SCc1cc(Cl)cc(Cl)c1 [Example 28, 2-(3,5-Dichlorobenzyl)thio)-1-methylpyridinium chloride]			-55	
C[n+]1ccccc1SCc1cccc(I)c1 [Example 35, 2-((3-Iodobenzyl)thio)-1-methylpyridinium chloride]	67		-41	
c1ccc(CSc2cccc[n+]2Cc2ccccc2)cc1 [Example 45, 1-Benzyl-2-(benzylthio)pyridinium bromide]			-75	
Cc1ccc(CSc2cccc[n+]2C)cc1 [Example 10, 1-Methyl-2(4-methylbenzylthio)pyridinium bromide]			-43	
C[N+]1=C(SCc2ccccc2)CCCC1 [Example 44, 2-Benzylthio-3,4,5,6-tetrahydro-1-methylpyridinium bromide]			-52	
CCOC(OCC)c1ccc[n+](-c2ccccc2)c1SCc1ccccc1 [Example 19, 2-Benzylthio-3-(diethoxy)methyl-1-phenylpyridinium chloride]			-88	
C[n+]1ccccc1SCc1ccc(Br)cc1 [Example 13, 2-(4-Bromobenzylthio)-1-methylpyridinium bromide]	70	NS		inhibition in vivo at 30 mg/kg (stress-induced erosion): 73%
C[n+]1ccccc1SCC(=O)c1ccccc1 [Example 15, 1-Methyl-2-phenacylthiopyridinium bromide]	100	NS		Antihypertensive activity (Procedure A) ([1]; 75 mg/kg orally): showed activity
c1ccc(CSc2ccccn2)cc1 [Example 38, 2-((Benzyl)thio)pyridine]			-32	
c1ccc(CSc2ccncc2)cc1 [Example 34, 4-Benzylmercaptopyridine]	64	NS		
C[n+]1ccccc1SCc1ccccc1Cl [Example 27, 2-((2-Chlorobenzyl)thio)-1-methylpyridinium chloride]			-66	change in vivo at 10 mg/kg (hypersecretion): -39%
Clc1cccc(CSc2ccncc2)c1 [Example 31, 4((3-Chloro)benzylthio)pyridine]	62		-34	
Cc1ccccc1CSc1cccc[n+]1C [Example 33, 1-Methyl-2-((2-methyl)benzylthio)pyridinium bromide]	73	NS		
c1ccc(CSC2=NCCCC2)cc1 [Example 43, 2-Benzylthio-3,4,5,6-tetrahydropyridine]			-48	
C[n+]1ccccc1SCc1cccc([N+](=O)[O-])c1 [Example 32, 1-Methyl-2-((3-nitro)benzylthio)pyridinium chloride]	73	NS		
C[n+]1ccccc1SCc1ccc(Cl)c(Cl)c1 [Example 4, 2-(3,4-Dichlorobenzylthio)-1-methylpyridinium chloride]	67		-45	Antihypertensive activity (Procedure A) ([1]; 75 mg/kg orally): showed activity

Compound	inhibition in vivo at 100 mg/kg (stress-induced erosion) [%]	Anti-secretory, % change in Vol. (hypersecretion)	change in vivo at 30 mg/kg (hypersecretion) [%]	further results
C[n+]1ccccc1SCc1ccc([N+](=O)[O-])cc1 [Example 6, 1-Methyl-2-(4-nitrobenzylthio)pyridinium bromide]	84	NS		
C[n+]1ccccc1SCc1ccc(Cl)cc1 [Example 3, 2-(4-Chlorobenzylthio)-1-methylpyridinium chloride]	83		-77	Antihypertensive activity (Procedure A) ([1]; 75 mg/kg orally): inactive
C[n+]1ccccc1SCc1cccc(Br)c1 [Example 17, 2-(3-Bromobenzylthio)-1-methylpyridinium bromide]	64		-52	Antihypertensive activity (Procedure A) ([1]; 50 mg/kg orally): inactive
C[n+]1ccccc1SC(c1ccccc1)c1ccccc1 [Example 39, 2-((Diphenylmethyl)thio)-1-methyloyridinium bromide]		NS		Antihypertensive activity (Procedure A) ([1]; 50 mg/kg orally): showed activity
C[n+]1ccc(SCc2cccc(Cl)c2)cc1 [Example 24, 4-((3-Chlorobenzyl)thio)-1-methylpyridinium chloride]	23		-40	inhibition in vivo at 30 mg/kg (stress-induced erosion): 60%
C[n+]1ccccc1SCc1cccc(C(F)(F)F)c1 [Example 37, 1-Methyl-2-((3-trifluoromethylbenzyl)thio)pyridinium chloride]		NS		Antihypertensive activity (Procedure A) ([1]; 50 mg/kg orally): showed activity
CC(C)c1ccc(CSc2cccc[n+]2C)cc1 [Example 18, 2-((-4-Isopropylbenzyl)thio)-1-methylpyridinium chloride]	71		-39	inhibition in vivo at 30 mg/kg (stress-induced erosion): 60%; Antihypertensive activity (Procedure A) ([1]; 50 mg/kg orally): inactive
COc1cccc(CSc2cccc[n+]2C)c1 [Example 36, 2-((3-Methoxybenzyl)thio)-1-methylpryridinum chloride]	69	NS		
C[n+]1ccccc1SCCCCc1ccccc1 [Example 40, 1-Methyl-2-((4-phenylbutyl)thio)pyridinium bromide]	67		-36	
C[n+]1ccccc1SCCCc1ccccc1 [Example 7, 1-Methyl-2-(3-phenylpropylthio)pyridinium bromide]	77	NS		
C[n+]1ccccc1SCc1ccc(F)cc1 [Example 21, 2((4-Fluorobenzyl)thio)-1-methylpyridinium chloride]	82		-67	inhibition in vivo at 30 mg/kg (stress-induced erosion): 71%
C[n+]1ccccc1SCc1ccccc1F [Example 20, 2-((2-Fluorobenzyl)thio)-1-methyloyridinium chloride]	70		-90	inhibition in vivo at 30 mg/kg (stress-induced erosion): 76%; change in vivo at 10 mg/kg (hypersecretion): -54%
C[n+]1ccccc1SCc1ccccc1 [Example 1, 2-Benzylthio-1-methylpyridinium bromide]	75		-71	inhibition in vivo at 30 mg/kg (stress-induced erosion): 92%
CC(CSc1cccc[n+]1C)c1ccccc1 (centres unmarked) [Example 9, 1-Methyl-2-(2-phenylpropylthio)pyridinium bromide]			-32	
C[n+]1ccccc1SCC=Cc1ccccc1 [Example 16, 2-Cinnamylthio-1-methylpyridinium bromide]			-55	
C[n+]1ccc(SCc2ccccc2)cc1 [Example 23, 4-Benzylthio-1-methylpyridinium bromide]	80	NS		inhibition in vivo at 30 mg/kg (stress-induced erosion): 70%
C[n+]1ccccc1SCc1ccc(OCc2ccccc2)cc1 [Example 14, 2-(((4-Benzyloxy)benzyl)thio)-1-methylpyridinium chloride]	90		-49	inhibition in vivo at 10 mg/kg (stress-induced erosion; 10 mg/kg): 60%; inhibition in vivo at 30 mg/kg (stress-induced erosion): 73%; change in vivo at 10 mg/kg (hypersecretion): -19%
COc1ccc(CSc2cccc[n+]2C)cc1 [Example 26, 2-((4-Methoxybenzyl)thio)-1-methylpyridinium chloride]			-46	
Cc1cccc(CSc2cccc[n+]2C)c1 [Example 25, 1-Methyl-2-((3-methylbenzyl)thio)pyridinium chloride]	80		-69	inhibition in vivo at 30 mg/kg (stress-induced erosion): 75%
C[n+]1ccccc1SCc1c(Cl)cccc1Cl [Example 5, 2-(2,6-Dichlorobenzylthio)-1-methylpyridinium chloride]	70		-65	change in vivo at 10 mg/kg (hypersecretion): -35%; Antihypertensive activity (Procedure A) ([1]; 75 mg/kg orally): showed activity
C[n+]1cccc(C=O)c1SCc1ccccc1 [Example 29, 2-Benzylthio-3-formyl-1-methylpyridinium bromide]	71		-48	

From US4304781A, “Treatment of ulcers and hypertension” (John Wyeth & Brother Limited, priority 1978, dated 1981)
